{"source": "PubChem BioAssay (NCI)", "note": "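Where inhibition never reached the appropriate level, the endpoint shown equals the highest concentration tested. Otherwise, values were interpolated linearly from a five-concentration, 48-hour dose response in 96-well plates. TGI is the concentration that stops growth completely.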", "data": [{"test_system": "MDA-MB-231 breast", "assay": "inhibition of tumour cell growth, NCI panel, 48 h", "units": {"TGI": "µM"}, "values": [{"smiles": "Cc1cccc(NS(=O)(=O)c2ccc3c(c2)OCCOCCOCCOCCO3)c1", "TGI": "> 100"}]}, {"test_system": "HL-60(TB) leukemia", "assay": "inhibition of tumour cell growth, NCI panel, 48 h", "units": {"TGI": "µM"}, "values": [{"smiles": "Cc1ccc(S(=O)(=O)N/N=C2/C3CCC(C3)C2c2ccccc2)cc1", "note": "(configuration not stated)", "TGI": "> 100"}, {"smiles": "CN1N(c2ccccc2)C(=O)C2=NC=C(C(=O)c3ccccc3)C(=N)C21C", "note": "(configuration not stated)", "TGI": "> 100"}, {"smiles": "Cc1cc(=O)[nH]c(-n2[nH]c3c(c2=O)CCCC3)n1", "TGI": "> 100"}, {"smiles": "O=C1c2ccc3c4ccc5c6c(ccc(c7ccc(c2c37)C(=O)N1CCN1CCCCC1)c64)C(=O)N(CCN1CCCCC1)C5=O", "TGI": "> 100"}, {"smiles": "Cc1cccc(NS(=O)(=O)c2ccc3c(c2)OCCOCCOCCOCCO3)c1", "TGI": "> 100"}]}, {"test_system": "SK-OV-3 ovarian", "assay": "inhibition of tumour cell growth, NCI panel, 48 h", "units": {"TGI": "µM"}, "values": [{"smiles": "Cc1ccc(S(=O)(=O)N/N=C2/C3CCC(C3)C2c2ccccc2)cc1", "note": "(configuration not stated)", "TGI": "> 100"}, {"smiles": "CN1N(c2ccccc2)C(=O)C2=NC=C(C(=O)c3ccccc3)C(=N)C21C", "note": "(configuration not stated)", "TGI": "> 100"}, {"smiles": "Cc1cc(=O)[nH]c(-n2[nH]c3c(c2=O)CCCC3)n1", "TGI": "> 100"}, {"smiles": "O=C1c2ccc3c4ccc5c6c(ccc(c7ccc(c2c37)C(=O)N1CCN1CCCCC1)c64)C(=O)N(CCN1CCCCC1)C5=O", "TGI": "> 100"}, {"smiles": "Cc1cccc(NS(=O)(=O)c2ccc3c(c2)OCCOCCOCCOCCO3)c1", "TGI": "> 100"}]}, {"test_system": "RXF 393 renal", "assay": "inhibition of tumour cell growth, NCI panel, 48 h", "units": {"TGI": "µM"}, "values": [{"smiles": "CN1N(c2ccccc2)C(=O)C2=NC=C(C(=O)c3ccccc3)C(=N)C21C", "note": "(configuration not stated)", "TGI": "> 100"}, {"smiles": "Cc1cc(=O)[nH]c(-n2[nH]c3c(c2=O)CCCC3)n1", "TGI": 48.7}, {"smiles": "O=C1c2ccc3c4ccc5c6c(ccc(c7ccc(c2c37)C(=O)N1CCN1CCCCC1)c64)C(=O)N(CCN1CCCCC1)C5=O", "TGI": "> 100"}]}, {"test_system": "HS 578T breast", "assay": "inhibition of tumour cell growth, NCI panel, 48 h", "units": {"TGI": "µM"}, "values": [{"smiles": "Cc1ccc(S(=O)(=O)N/N=C2/C3CCC(C3)C2c2ccccc2)cc1", "note": "(configuration not stated)", "TGI": "> 100"}, {"smiles": "CN1N(c2ccccc2)C(=O)C2=NC=C(C(=O)c3ccccc3)C(=N)C21C", "note": "(configuration not stated)", "TGI": "> 100"}, {"smiles": "Cc1cc(=O)[nH]c(-n2[nH]c3c(c2=O)CCCC3)n1", "TGI": "> 100"}, {"smiles": "O=C1c2ccc3c4ccc5c6c(ccc(c7ccc(c2c37)C(=O)N1CCN1CCCCC1)c64)C(=O)N(CCN1CCCCC1)C5=O", "TGI": "> 100"}, {"smiles": "Cc1cccc(NS(=O)(=O)c2ccc3c(c2)OCCOCCOCCOCCO3)c1", "TGI": "> 100"}]}, {"test_system": "IGROV1 ovarian", "assay": "inhibition of tumour cell growth, NCI panel, 48 h", "units": {"TGI": "µM"}, "values": [{"smiles": "Cc1ccc(S(=O)(=O)N/N=C2/C3CCC(C3)C2c2ccccc2)cc1", "note": "(configuration not stated)", "TGI": "> 100"}, {"smiles": "CN1N(c2ccccc2)C(=O)C2=NC=C(C(=O)c3ccccc3)C(=N)C21C", "note": "(configuration not stated)", "TGI": "> 100"}, {"smiles": "Cc1cc(=O)[nH]c(-n2[nH]c3c(c2=O)CCCC3)n1", "TGI": "> 100"}, {"smiles": "O=C1c2ccc3c4ccc5c6c(ccc(c7ccc(c2c37)C(=O)N1CCN1CCCCC1)c64)C(=O)N(CCN1CCCCC1)C5=O", "TGI": "> 100"}, {"smiles": "Cc1cccc(NS(=O)(=O)c2ccc3c(c2)OCCOCCOCCOCCO3)c1", "TGI": "> 100"}]}, {"test_system": "SF-539 CNS", "assay": "inhibition of tumour cell growth, NCI panel, 48 h", "units": {"TGI": "µM"}, "values": [{"smiles": "CN1N(c2ccccc2)C(=O)C2=NC=C(C(=O)c3ccccc3)C(=N)C21C", "note": "(configuration not stated)", "TGI": "> 100"}, {"smiles": "Cc1cc(=O)[nH]c(-n2[nH]c3c(c2=O)CCCC3)n1", "TGI": "> 100"}, {"smiles": "O=C1c2ccc3c4ccc5c6c(ccc(c7ccc(c2c37)C(=O)N1CCN1CCCCC1)c64)C(=O)N(CCN1CCCCC1)C5=O", "TGI": "> 100"}, {"smiles": "Cc1cccc(NS(=O)(=O)c2ccc3c(c2)OCCOCCOCCOCCO3)c1", "TGI": "> 100"}]}, {"test_system": "HOP-62 NSCLC", "assay": "inhibition of tumour cell growth, NCI panel, 48 h", "units": {"TGI": "µM"}, "values": [{"smiles": "Cc1ccc(S(=O)(=O)N/N=C2/C3CCC(C3)C2c2ccccc2)cc1", "note": "(configuration not stated)", "TGI": "> 100"}, {"smiles": "CN1N(c2ccccc2)C(=O)C2=NC=C(C(=O)c3ccccc3)C(=N)C21C", "note": "(configuration not stated)", "TGI": "> 100"}, {"smiles": "O=C1c2ccc3c4ccc5c6c(ccc(c7ccc(c2c37)C(=O)N1CCN1CCCCC1)c64)C(=O)N(CCN1CCCCC1)C5=O", "TGI": "> 100"}, {"smiles": "Cc1cccc(NS(=O)(=O)c2ccc3c(c2)OCCOCCOCCOCCO3)c1", "TGI": "> 100"}]}, {"test_system": "HCC-2998 colon", "assay": "inhibition of tumour cell growth, NCI panel, 48 h", "units": {"TGI": "µM"}, "values": [{"smiles": "CN1N(c2ccccc2)C(=O)C2=NC=C(C(=O)c3ccccc3)C(=N)C21C", "note": "(configuration not stated)", "TGI": "> 100"}, {"smiles": "O=C1c2ccc3c4ccc5c6c(ccc(c7ccc(c2c37)C(=O)N1CCN1CCCCC1)c64)C(=O)N(CCN1CCCCC1)C5=O", "TGI": "> 100"}, {"smiles": "Cc1cccc(NS(=O)(=O)c2ccc3c(c2)OCCOCCOCCOCCO3)c1", "TGI": "> 100"}]}, {"test_system": "NCI-H226 lung", "assay": "inhibition of tumour cell growth, NCI panel, 48 h", "units": {"TGI": "µM"}, "values": [{"smiles": "Cc1ccc(S(=O)(=O)N/N=C2/C3CCC(C3)C2c2ccccc2)cc1", "note": "(configuration not stated)", "TGI": "> 100"}, {"smiles": "CN1N(c2ccccc2)C(=O)C2=NC=C(C(=O)c3ccccc3)C(=N)C21C", "note": "(configuration not stated)", "TGI": "> 100"}, {"smiles": "Cc1cc(=O)[nH]c(-n2[nH]c3c(c2=O)CCCC3)n1", "TGI": "> 100"}, {"smiles": "O=C1c2ccc3c4ccc5c6c(ccc(c7ccc(c2c37)C(=O)N1CCN1CCCCC1)c64)C(=O)N(CCN1CCCCC1)C5=O", "TGI": "> 100"}, {"smiles": "Cc1cccc(NS(=O)(=O)c2ccc3c(c2)OCCOCCOCCOCCO3)c1", "TGI": "> 100"}]}, {"test_system": "MDA-MB-435", "assay": "inhibition of tumour cell growth, NCI panel, 48 h", "units": {"TGI": "µM"}, "values": [{"smiles": "Cc1ccc(S(=O)(=O)N/N=C2/C3CCC(C3)C2c2ccccc2)cc1", "note": "(configuration not stated)", "TGI": "> 100"}, {"smiles": "CN1N(c2ccccc2)C(=O)C2=NC=C(C(=O)c3ccccc3)C(=N)C21C", "note": "(configuration not stated)", "TGI": "> 100"}, {"smiles": "Cc1cc(=O)[nH]c(-n2[nH]c3c(c2=O)CCCC3)n1", "TGI": "> 100"}, {"smiles": "O=C1c2ccc3c4ccc5c6c(ccc(c7ccc(c2c37)C(=O)N1CCN1CCCCC1)c64)C(=O)N(CCN1CCCCC1)C5=O", "TGI": "> 100"}, {"smiles": "Cc1cccc(NS(=O)(=O)c2ccc3c(c2)OCCOCCOCCOCCO3)c1", "TGI": "> 100"}]}, {"test_system": "RPMI-8226 leukemia", "assay": "inhibition of tumour cell growth, NCI panel, 48 h", "units": {"TGI": "µM"}, "values": [{"smiles": "Cc1ccc(S(=O)(=O)N/N=C2/C3CCC(C3)C2c2ccccc2)cc1", "note": "(configuration not stated)", "TGI": "> 100"}, {"smiles": "CN1N(c2ccccc2)C(=O)C2=NC=C(C(=O)c3ccccc3)C(=N)C21C", "note": "(configuration not stated)", "TGI": "> 100"}, {"smiles": "Cc1cc(=O)[nH]c(-n2[nH]c3c(c2=O)CCCC3)n1", "TGI": "> 100"}, {"smiles": "O=C1c2ccc3c4ccc5c6c(ccc(c7ccc(c2c37)C(=O)N1CCN1CCCCC1)c64)C(=O)N(CCN1CCCCC1)C5=O", "TGI": "> 100"}, {"smiles": "Cc1cccc(NS(=O)(=O)c2ccc3c(c2)OCCOCCOCCOCCO3)c1", "TGI": "> 100"}]}, {"test_system": "HOP-92 NSCLC", "assay": "inhibition of tumour cell growth, NCI panel, 48 h", "units": {"TGI": "µM"}, "values": [{"smiles": "Cc1ccc(S(=O)(=O)N/N=C2/C3CCC(C3)C2c2ccccc2)cc1", "note": "(configuration not stated)", "TGI": "> 100"}, {"smiles": "CN1N(c2ccccc2)C(=O)C2=NC=C(C(=O)c3ccccc3)C(=N)C21C", "note": "(configuration not stated)", "TGI": "> 100"}, {"smiles": "Cc1cc(=O)[nH]c(-n2[nH]c3c(c2=O)CCCC3)n1", "TGI": "> 100"}, {"smiles": "O=C1c2ccc3c4ccc5c6c(ccc(c7ccc(c2c37)C(=O)N1CCN1CCCCC1)c64)C(=O)N(CCN1CCCCC1)C5=O", "TGI": "> 100"}]}, {"test_system": "HCT-116 colon", "assay": "inhibition of tumour cell growth, NCI panel, 48 h", "units": {"TGI": "µM"}, "values": [{"smiles": "Cc1ccc(S(=O)(=O)N/N=C2/C3CCC(C3)C2c2ccccc2)cc1", "note": "(configuration not stated)", "TGI": "> 100"}, {"smiles": "CN1N(c2ccccc2)C(=O)C2=NC=C(C(=O)c3ccccc3)C(=N)C21C", "note": "(configuration not stated)", "TGI": "> 100"}, {"smiles": "Cc1cc(=O)[nH]c(-n2[nH]c3c(c2=O)CCCC3)n1", "TGI": "> 100"}, {"smiles": "O=C1c2ccc3c4ccc5c6c(ccc(c7ccc(c2c37)C(=O)N1CCN1CCCCC1)c64)C(=O)N(CCN1CCCCC1)C5=O", "TGI": "> 100"}, {"smiles": "Cc1cccc(NS(=O)(=O)c2ccc3c(c2)OCCOCCOCCOCCO3)c1", "TGI": "> 100"}]}, {"test_system": "U251 CNS", "assay": "inhibition of tumour cell growth, NCI panel, 48 h", "units": {"TGI": "µM"}, "values": [{"smiles": "Cc1ccc(S(=O)(=O)N/N=C2/C3CCC(C3)C2c2ccccc2)cc1", "note": "(configuration not stated)", "TGI": "> 100"}, {"smiles": "CN1N(c2ccccc2)C(=O)C2=NC=C(C(=O)c3ccccc3)C(=N)C21C", "note": "(configuration not stated)", "TGI": "> 100"}, {"smiles": "Cc1cc(=O)[nH]c(-n2[nH]c3c(c2=O)CCCC3)n1", "TGI": "> 100"}, {"smiles": "O=C1c2ccc3c4ccc5c6c(ccc(c7ccc(c2c37)C(=O)N1CCN1CCCCC1)c64)C(=O)N(CCN1CCCCC1)C5=O", "TGI": "> 100"}]}, {"test_system": "NCI-H522 lung", "assay": "inhibition of tumour cell growth, NCI panel, 48 h", "units": {"TGI": "µM"}, "values": [{"smiles": "Cc1ccc(S(=O)(=O)N/N=C2/C3CCC(C3)C2c2ccccc2)cc1", "note": "(configuration not stated)", "TGI": "> 100"}, {"smiles": "CN1N(c2ccccc2)C(=O)C2=NC=C(C(=O)c3ccccc3)C(=N)C21C", "note": "(configuration not stated)", "TGI": "> 100"}, {"smiles": "Cc1cc(=O)[nH]c(-n2[nH]c3c(c2=O)CCCC3)n1", "TGI": "> 100"}, {"smiles": "Cc1cccc(NS(=O)(=O)c2ccc3c(c2)OCCOCCOCCOCCO3)c1", "TGI": 65.5}]}]}
